Patent US11083725B2 (priority 2014, dated 2021)

Test system: NHBE cells
Test: Biolog metabolic array: substrate use by NHBE cells with or without CA09 infection
Type: cell-based, human
[1] = Control (uninfected) NHBE cells
[2] = Virus (CA09-infected, MOI 1) NHBE cells
[3] = Virus: CA09-infected NHBE cells, MOI 1, Biolog PMM2

With O=C[C@@H](O)[C@H](O)[C@H](O)CO [D-Arabinose] the “590 nm absorbance normalized to zero hour (substrate use), 1 hr” value [1] was 1.59, the “590 nm absorbance normalized to zero hour (substrate use), 2 hr” value (shortened to “590 nm absorbance normalized … 2 hr”) [1] was 1.50 and the “590 nm absorbance normalized to zero hour (substrate use), 3 hr” value (“590 nm absorbance normalized … 3 hr” for short) [1] was 0.77. The “590 nm absorbance normalized to zero hour (substrate use), 4 hr” value (“590 nm absorbance normalized … 4 hr” below) [1] was 1.35, the “590 nm absorbance normalized to zero hour (substrate use), 6 hr” value (shortened to “590 nm absorbance normalized … 6 hr”) [1] was 0.39 and the “590 nm absorbance normalized to zero hour (substrate use), 8 hr” value (“590 nm absorbance normalized … 8 hr” for short) [1] was 1.00. The “590 nm absorbance normalized to zero hour (substrate use), 9 hr” value (“590 nm absorbance normalized … 9 hr” below) [1] was 1.14, the “590 nm absorbance normalized to zero hour (substrate use), 10 hr” value (shortened to “590 nm absorbance normalized … 10 hr”) [1] was 0.96 and the “590 nm absorbance normalized to zero hour (substrate use), 11 hr” value (from here on “590 nm absorbance normalized … 11 hr”) [1] was 1.35. For the same molecule, the “Substrate use, 590 nm absorbance normalized to zero hour, 1 hr” value (Control (uninfected) NHBE cells, Biolog PMM2, 1 hr) was 1.59, the “Substrate use, 590 nm absorbance normalized to zero hour, 5 hr” value (Control (uninfected) NHBE cells, Biolog PMM2, 5 hr) was 0.99 and the “Substrate use, 590 nm absorbance normalized to zero hour, 7 hr” value (Control (uninfected) NHBE cells, Biolog PMM2, 7 hr) was 1.04. The “590 nm absorbance normalized to zero hour (substrate use), 1 hr” value [2] was 0.65, the “590 nm absorbance normalized … 2 hr” value [2] was 0.90 and the “590 nm absorbance normalized … 3 hr” value [2] was 1.03. For the same molecule, the “590 nm absorbance normalized … 4 hr” value [2] was 1.07, the “590 nm absorbance normalized to zero hour (substrate use), 5 hr” value [2] was 1.22 and the “590 nm absorbance normalized … 6 hr” value [2] was 1.29. For the same molecule, the “590 nm absorbance normalized to zero hour (substrate use), 7 hr” value [2] was 1.37, the “590 nm absorbance normalized … 8 hr” value [2] was 1.33 and the “590 nm absorbance normalized … 9 hr” value [2] was 1.34. For the same molecule, the “590 nm absorbance normalized … 10 hr” value [2] was 1.38, the “590 nm absorbance normalized … 11 hr” value [2] was 1.58 and the “590 nm absorbance normalized to zero hour (substrate use), 1 hr” value [3] was 0.65. The “590 nm absorbance normalized … 2 hr” value [3] was 0.90, the “590 nm absorbance normalized … 3 hr” value [3] was 1.03 and the “590 nm absorbance normalized … 4 hr” value [3] was 1.07. The “590 nm absorbance normalized to zero hour (substrate use), 5 hr” value [3] was 1.22, the “590 nm absorbance normalized … 6 hr” value [3] was 1.29 and the “590 nm absorbance normalized to zero hour (substrate use), 7 hr” value [3] was 1.37. The “590 nm absorbance normalized … 8 hr” value [3] was 1.33, the “590 nm absorbance normalized … 9 hr” value [3] was 1.34 and the “590 nm absorbance normalized … 10 hr” value [3] was 1.38. For the same molecule, the “590 nm absorbance normalized … 11 hr” value [3] was 1.58.
